pKi: −log10 of the molar value. Where “and” joins values, the source holds several entries; their conditions need not be identical. Identical values can stand only once. Like-named read-outs stand apart in the source and are kept apart here.
Key:
[1] = target: T1, human recombinant adrenergic α2A receptor (Homo sapiens, UniProt P08913); assay: Radioligand binding, adrenergic α2A ([3H]MK-912); settings: for Percentage inhibition of ligand binding, Adrenergic α2A / Percentage inhibition of ligand binding, Adrenergic α2A (0.1 μM): 0.1 µM
T1 construct: expressed in transfected cells; host or cells: insect Sf9 cells
T1 sequence (P08913 1-465): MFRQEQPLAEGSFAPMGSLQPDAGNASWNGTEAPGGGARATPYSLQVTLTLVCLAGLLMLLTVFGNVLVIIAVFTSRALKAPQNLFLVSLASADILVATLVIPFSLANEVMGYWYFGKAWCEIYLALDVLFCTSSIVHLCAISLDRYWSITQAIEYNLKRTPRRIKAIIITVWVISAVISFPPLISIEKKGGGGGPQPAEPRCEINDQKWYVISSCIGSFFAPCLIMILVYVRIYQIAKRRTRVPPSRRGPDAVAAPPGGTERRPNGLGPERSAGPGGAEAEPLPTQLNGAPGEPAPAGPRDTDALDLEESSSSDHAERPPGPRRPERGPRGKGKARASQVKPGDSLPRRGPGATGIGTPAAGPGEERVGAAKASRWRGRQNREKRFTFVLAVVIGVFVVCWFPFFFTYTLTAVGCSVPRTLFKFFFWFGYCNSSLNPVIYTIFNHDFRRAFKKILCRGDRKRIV
Procedure, shortened: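 In 50 mM Tris-HCl (pH 7.4) containing 12.5 mM MgCl2 and 2 mM EDTA, Sf9-expressed receptor was exposed to test compound plus 1 nM [3H]MK-912 at 25 °C for 60 min. Specific binding, corrected using 10 μM WB-4101, was quantified by filtration and counting and expressed as percent inhibition.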

[2] = target: T2, human recombinant adrenergic α2B receptor (Homo sapiens, UniProt P18089); assay: Radioligand binding, adrenergic α2B ([3H]Rauwolscine); settings: for pKi: read-out: Ki α2B
T2 construct: expressed in transfected cells; host or cells: CHO-K1
T2 sequence (P18089 1-450): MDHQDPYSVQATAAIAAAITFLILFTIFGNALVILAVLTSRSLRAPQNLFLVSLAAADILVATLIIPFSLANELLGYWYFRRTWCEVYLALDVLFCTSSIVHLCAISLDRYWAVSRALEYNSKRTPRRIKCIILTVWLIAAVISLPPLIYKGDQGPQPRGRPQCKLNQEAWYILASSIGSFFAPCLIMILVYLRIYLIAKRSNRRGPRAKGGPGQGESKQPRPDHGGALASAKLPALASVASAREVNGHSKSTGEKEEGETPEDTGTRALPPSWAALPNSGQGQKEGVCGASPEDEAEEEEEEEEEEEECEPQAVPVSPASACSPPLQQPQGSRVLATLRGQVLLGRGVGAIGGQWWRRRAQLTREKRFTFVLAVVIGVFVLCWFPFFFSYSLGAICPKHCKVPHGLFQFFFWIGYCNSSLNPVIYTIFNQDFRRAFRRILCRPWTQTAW
Procedure, shortened: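 Values are percent inhibition of specific radioligand binding. The receptor, expressed in CHO-K1 cells, was exposed to 2.5 nM [3H]Rauwolscine at 25° C for 60 min, with 10 μM Prazosin marking non-specific binding.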

[3] = target: T3, rat adrenergic α1B receptor (Rattus norvegicus, UniProt P15823); assay: Radioligand binding, adrenergic α1B ([3H]Prazosin); settings: for inhibition at 0.03 µM: compound at 0.03 μM; for Percentage inhibition of ligand binding, Adrenergic α1B / Percentage inhibition of ligand binding, Adrenergic α1B (0.1 μM): 0.1 µM
T3 construct: rat adrenergic α1B receptor obtained from Wistar Rat liver; from tissue; host or cells: Wistar rat liver
T3 sequence (P15823 1-515): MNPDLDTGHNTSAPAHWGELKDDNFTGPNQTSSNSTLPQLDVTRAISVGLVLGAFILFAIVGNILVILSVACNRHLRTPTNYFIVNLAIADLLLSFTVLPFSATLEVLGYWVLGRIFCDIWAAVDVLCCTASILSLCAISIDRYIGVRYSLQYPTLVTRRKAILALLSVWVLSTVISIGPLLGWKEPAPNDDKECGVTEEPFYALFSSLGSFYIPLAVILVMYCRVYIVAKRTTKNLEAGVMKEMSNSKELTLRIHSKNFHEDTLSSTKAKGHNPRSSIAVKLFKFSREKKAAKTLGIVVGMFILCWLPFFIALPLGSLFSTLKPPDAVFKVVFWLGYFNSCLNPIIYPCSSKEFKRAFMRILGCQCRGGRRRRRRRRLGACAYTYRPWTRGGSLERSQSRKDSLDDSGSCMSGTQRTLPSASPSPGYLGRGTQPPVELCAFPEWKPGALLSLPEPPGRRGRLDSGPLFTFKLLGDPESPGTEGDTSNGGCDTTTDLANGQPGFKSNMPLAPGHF
Procedure, shortened: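 Filter binding with Wistar rat liver α1B preparation: test compound plus 0.25 nM [3H]prazosin, 1 h at 25° C in modified Tris-HCl buffer pH 7.4.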

[4] = compound at 0.1 μM, [3H]MK-912, repeat assays, each datapoint shown
[5] = compound at 0.1 μM, [3H]MK-912, repeat assays, each datapoint shown, read-out: Percentage inhibition of ligand binding, Adrenergic α2A
[6] = compound at 0.03 μM, [3H]Rauwolscine, repeat assays, each datapoint shown, 0.03 µM
[7] = compound at 0.03 μM, [3H]Rauwolscine, repeat assays, each datapoint shown, read-out: Percentage inhibition of ligand binding, Adrenergic α2B
[8] = [3H]Prazosin, repeat assays, each datapoint shown, read-out: Percentage inhibition of ligand binding, Adrenergic α1B
[9] = compound at 0.1 μM, [3H]Prazosin, repeat assays, each datapoint shown
[10] = compound at 0.1 μM, [3H]Prazosin, repeat assays, each datapoint shown, read-out: Percentage inhibition of ligand binding, Adrenergic α1B
[11] = compound at 0.1 μM, [3H]Rauwolscine, repeat assays, each datapoint shown, read-out: Percentage inhibition of ligand binding, Adrenergic α2B
[12] = compound at 0.1 μM, [3H]MK-912, repeat datapoints each shown
[13] = compound at 0.03 μM, [3H]Rauwolscine, repeat datapoints each shown, 0.03 µM
[14] = compound at 0.1 μM, [3H]Prazosin, repeat datapoints each shown
[15] = read-out: Percentage inhibition of ligand binding, Adrenergic α2A (0.1 μM), compound at 0.1 μM, [3H]MK-912, repeat datapoints each shown
[16] = read-out: Percentage inhibition of ligand binding, Adrenergic α2B (0.03 μM), compound at 0.03 μM, [3H]Rauwolscine, repeat datapoints each shown
[17] = read-out: Percentage inhibition of ligand binding, Adrenergic α1B (0.1 μM), compound at 0.1 μM, [3H]Prazosin, repeat datapoints each shown
[18] = 0.1 μM compound, read-out: Percentage inhibition of ligand binding, Adrenergic α2A
[19] = 0.03 μM compound, read-out: Percentage inhibition of ligand binding, Adrenergic α2B
[20] = 0.1 μM compound, read-out: Percentage inhibition of ligand binding, Adrenergic α1B

Structure (SMILES): Cc1ccc2c(c1)c1c(n2CC(O)c2ccc(F)cc2)CCN(C)C1 (single isomer, unassigned) [30b]
- pKi [1]: 7.85
- inhibition at 0.03 µM ([1]; compound at 0.03 μM, [3H]MK-912, repeat assays, each datapoint shown, read-out: Percentage inhibition of ligand binding, Adrenergic α2A): 42%
- Percentage inhibition of ligand binding, Adrenergic α2A [1, 4]: 75%
- inhibition at 0.1 µM [1, 5]: 74%
- Percentage inhibition of ligand binding, Adrenergic α2B [2, 6]: 102%
- inhibition at 0.03 µM [2, 7]: 100%
- pKi [2]: 8.95
- inhibition at 0.03 µM [3, 8]: 68%
- Percentage inhibition of ligand binding, Adrenergic α1B [3, 9]: 91%
- inhibition at 0.1 µM [3, 10]: 89%

Structure (SMILES): Cc1ccc2c(c1)c1c(n2CC(O)c2ccncc2)CCN(C)C1 (single isomer, unassigned) [3a]
- inhibition at 0.1 µM [1, 5]: 16%
- Percentage inhibition of ligand binding, Adrenergic α2B [2, 6]: 26% and 30%
- inhibition at 0.1 µM [2, 11]: 62%
- pKi [2]: 7.56
- inhibition at 0.03 µM [3, 8]: 18%

Structure (SMILES): CCC(O)(Cn1c2c(c3cc(C)ccc31)CN(C)CC2)c1ccncc1 (centres unmarked) [35a]
- inhibition at 0.1 µM [1, 5]: 20%
- inhibition at 0.1 µM [2, 11]: 62%
- inhibition at 0.1 µM [3, 10]: 9%

Structure (SMILES): CN1CCc2c(c3cc(Cl)cnc3n2CC(C)(O)c2ccc(C(F)(F)F)nc2)C1 (single isomer, unassigned) [II-109a]
- Percentage inhibition of ligand binding, Adrenergic α2A (0.1 μM) [1, 12]: 2%
- Percentage inhibition of ligand binding, Adrenergic α2B (0.03 μM) [2, 13]: 41%
- Percentage inhibition of ligand binding, Adrenergic α1B (0.1 μM) [3, 14]: 27%

Structure (SMILES): CN1CCc2c(c3cc(Cl)ccc3n2CC(C)(O)c2ccc(C(F)(F)F)nc2)C1 (single isomer, unassigned) [143b]
- Percentage inhibition of ligand binding, Adrenergic α2A (0.1 μM) [1, 12]: 0%
- Percentage inhibition of ligand binding, Adrenergic α2B (0.03 μM) [2, 13]: 49%
- Percentage inhibition of ligand binding, Adrenergic α1B (0.1 μM) [3, 14]: 17%

Structure (SMILES): CC(O)(Cn1c2c(c3cc(Cl)ccc31)CNCC2)c1ccncn1 (single isomer, unassigned) [42a, 1-(8-chloro-1,2,3,4-tetrahydro-pyrido[4,3-b]indol-5-yl)-2-pyrimidin-4-yl-propan-2-ol]
- Percentage inhibition of ligand binding, Adrenergic α2A [1, 4]: 3%
- inhibition at 0.03 µM [2, 7]: 29%
- inhibition at 0.1 µM [3, 10]: 15%

Structure (SMILES): Cc1ccc2c(c1)c1c(n2CC(N=[N+]=[N-])c2ccc(F)cc2)CCN2CCCC12 (centres unmarked) [V-23, 7-(2-azido-2-(4-fluorophenyl)ethyl)-10-methyl-2,3,5,6,7,11c-hexahydro-1H-indolizino[7,8-b]indole]
- inhibition at 0.1 µM [1, 15]: 109%
- inhibition at 0.03 µM [2, 16]: 105%
- inhibition at 0.1 µM [3, 17]: 94%

Structure (SMILES): CN1CCc2c(c3ccncc3n2CC(O)c2ccncc2)C1 (centres unmarked) [II-242]
- inhibition at 0.1 µM [1, 15]: 2%
- inhibition at 0.03 µM [2, 16]: 3%
- inhibition at 0.1 µM [3, 17]: 4%

Structure (SMILES): Cc1ccc2c(c1)c1c(n2CC(C)(O)c2ccc(F)cc2)CCN(C)C1 (single isomer, unassigned) [90b]
- Percentage inhibition of ligand binding, Adrenergic α2A [1, 4]: 82%
- Percentage inhibition of ligand binding, Adrenergic α2B ([2]; compound at 0.03 μM, [3H]Rauwolscine, repeat assays, each datapoint shown): 97%
- Percentage inhibition of ligand binding, Adrenergic α1B [3, 9]: 81%

Structure (SMILES): CN1CCc2c(c3cc(C(F)(F)F)ccc3n2CC(C)(O)c2cccnc2)C1 (single isomer, unassigned) [174a]
- Percentage inhibition of ligand binding, Adrenergic α2A (0.1 μM) [1, 12]: 22%
- Percentage inhibition of ligand binding, Adrenergic α2B (0.03 μM) [2, 13]: 62% and 71%
- pKi [2]: 8.10
- inhibition at 0.1 µM ([2]; read-out: Percentage inhibition of ligand binding, Adrenergic α2B (0.1 μM), compound at 0.1 μM, [3H]Rauwolscine, repeat datapoints each shown): 86%
- inhibition at 0.1 µM [3, 17]: 13%

Structure (SMILES): Cc1ccc2c(c1)c1c(n2C(C)C(O)c2ccncc2)CCN(C)C1 (centres unmarked) [127b]
- inhibition at 0.1 µM [1, 15]: 4%
- inhibition at 0.03 µM [2, 16]: 1%
- inhibition at 0.1 µM [3, 17]: 13%

Structure (SMILES): Cc1ccc2c(c1)c1c(n2CC(C)(O)c2ccc(C(N)=O)nc2)CCN(C)C1 (single isomer, unassigned) [II-136a, 5-(1-(1,2,3,4-tetrahydro-2,8-dimethylpyrido[4,3-b]indol-5-yl)-2-hydroxypropan-2-yl)pyridine-2-carboxamide]
- inhibition at 0.1 µM [1, 15]: 7%
- inhibition at 0.03 µM [2, 16]: 36%
- Percentage inhibition of ligand binding, Adrenergic α1B (0.1 μM) [3, 14]: 60%

Structure (SMILES): CC(=O)NC(Cn1c2c(c3cc(C)ccc31)CN(C)CC2)c1ccncc1 (single isomer, unassigned) [II-1a, N-(2-(1,2,3,4-tetrahydro-2,8-dimethylpyrido[4,3-b]indol-5-yl)-1-(pyridin-4-yl)ethyl)acetamide]
- Percentage inhibition of ligand binding, Adrenergic α2A ([1]; 0.1 μM compound): 15%
- Percentage inhibition of ligand binding, Adrenergic α2B ([2]; 0.03 μM compound, 0.03 µM): 14%
- Percentage inhibition of ligand binding, Adrenergic α1B ([3]; 0.1 μM compound): 6%

Structure (SMILES): CN1CCc2c(c3cccnc3n2CC(O)c2ccncc2)C1 (centres unmarked) [II-78]
- inhibition at 0.1 µM [1, 18]: 1%
- inhibition at 0.03 µM [2, 19]: -9%
- inhibition at 0.1 µM [3, 20]: -11%

Structure (SMILES): CCC1c2c(c3cc(C)ccc3n2CC(O)c2ccncc2)CCN1C (centres unmarked) [II-74]
- inhibition at 0.1 µM [1, 18]: 10%
- inhibition at 0.03 µM [2, 19]: 18%
- inhibition at 0.1 µM [3, 20]: 11%

Structure (SMILES): Cc1ccc2c(c1)c1c(n2CC(CC(C)(C)O)c2ccncc2)CCN(C)C1 (centres unmarked) [II-226, 5-(2,8-dimethyl-1,2,3,4-tetrahydro-pyrido[4,3-b]indol-5-yl)-2-methyl-4-pyridin-4-yl-pentan-2-ol]
- inhibition at 0.1 µM [1, 15]: 4%
- inhibition at 0.03 µM [2, 16]: 40%
- inhibition at 0.1 µM [3, 17]: 15%
